Values quoted from earlier work, collected in US10292953B2 (priority 2013, dated 2019).
Like-named read-outs stand apart in the source and are kept apart here.

What was measured:
porcine cornea = details: solution, in vitro
corneal pain [1] = details: cats, aqueous solution of 1%, topical ocular
corneal pain [2] = details: dogs, aqueous solution of 1%, topical ocular
ulceration of the cornea = details: 1% topical solution, rabbits with ulceration of the cornea

## CC(C)Cc1ccc(C(C)C(=O)O)cc1.N=C(N)NCCC[C@H](N)C(=O)O (centres unmarked)
Porcine cornea
  effect on integrity of the cornea: adversely affected the integrity of the cornea

## CC(C)Cc1ccc(C(C)C(=O)O)cc1.NCCCC[C@H](N)C(=O)O (centres unmarked)
Porcine cornea
  effect on integrity of the cornea: adversely affected the integrity of the cornea

## CN1CC[C@]23c4c5ccc(O)c4O[C@H]2[C@@H](O)C=C[C@H]3[C@H]1C5 [morphine]
Corneal pain [1]
  analgesic effects in treatment of corneal pain: did not demonstrate analgesic effects
Corneal pain [2]
  analgesic effects in treatment of corneal pain: did not demonstrate analgesic effects

## Oc1ccc2c3c1O[C@H]1[C@@H](O)CC[C@@]4(O)[C@@H](C2)N(CC2CCC2)CC[C@]314 [nalbuphine]
Ulceration of the cornea
  analgesic efficacy: Neither did the opioid semi-synthetic nalbuphine applied in the form of 1% topical solution demonstrate analgesic efficacy
